We go through eight molecules from patent publication US20140135526A1, “COMPOSITIONS AND METHODS FOR 3-HYDROXYPROPIONATE BIO-PRODUCTION FROM BIOMASS” (OPX Biotechnologies, Inc., priority 2007, published 2014).

The test system of one assay is E. coli. Kind of assay: Alleviation of 3-HP toxicity by adding downstream products of the chorismate superpathway. The note with it: added as supplement in the presence of 3-HP. Format: cell-based. The source says: The data shown in FIG. 4 depict identification of the chorismate superpathway as a target of 3-HP toxicity. In some embodiments, toxicity is alleviated by several processes.

Another assay concerns K12. Format: cell-based, E. coli. The note with it: M9 minimal media plates with threonine, leucine, thiamine; 37 C overnight; 10 g/L beta-alanine, 1 mM IPTG, 0.2 g/L putrescine, 200 mg/L ampicillin where indicated. The method, then: (§1) E. coli AB354 (Δ panD) was transformed with the vector controls, pKK223, pKK223-Cterm-5×his (‘5×His’ disclosed as SEQ ID NO: 24), as well as the test vectors pKK223-mcr and pKK223-Cterm-5×His-kgd (‘5×His’ disclosed as SEQ ID NO: 24), according to standard methods described below. Each of the strains were grown overnight in LB rich media supplemented with 200 mg/L ampicillin (according to standard protocols). Following overnight growth, cells twice were harvested by centrifugation and washed by resuspension in M9 minimal media (standard protocol), diluted 1:10,000 and plated on M9 minimal media plates with 0.05 g/L threonine, 0.1 g/L leucine, 0.067 g/L thiamine, with the additional appropriate supplements, where indicated at the following concentrations (10 g/L beta-alanine (Sigma Aldrich, St. Louis, Mo.), 1 mM Isopropyl β-D-1-thiogalactopyranoside (Thermo Fisher Scientific, Fairlawn, N.J.), 0.2 g/L putrescine (MPBiomedicals, Santa Ana, Calif.), 200 mg/L ampicillin (Research Products International Corp., Mt. Prospect, Ill.) After plating, agarose plates were incubated at 37 C overnight by standard methods. […] A plus (+) indicates growth on a plate, minus (−) indicates no growth. […] Putrescine is known to induce the expression of gamma-aminobutyrate transaminase in E. coli. This enzyme has been shown in some species including Rattus norvegicus to also have beta-alanine aminotransferase activity.

Assay [1] has as its system AB354 (ΔpanD) + pKK223-kgd. The class given is cell-based, E. coli. The note with it: M9 minimal media plates with threonine, leucine, thiamine; 37 C overnight; 10 g/L beta-alanine, 1 mM IPTG, 0.2 g/L putrescine, 200 mg/L ampicillin where indicated. The method, then: as §1
The test system of the next assay is AB354 (ΔpanD) + pKK223. Format: cell-based, E. coli. The conditions noted are these: M9 minimal media plates with threonine, leucine, thiamine; 37 C overnight; 10 g/L beta-alanine, 1 mM IPTG, 0.2 g/L putrescine, 200 mg/L ampicillin where indicated. As to the method: as §1
The test system of assay [2] is AB354 (ΔpanD) + pKK223-mer. Format: cell-based, E. coli. The conditions noted are these: M9 minimal media plates with threonine, leucine, thiamine; 37 C overnight; 10 g/L beta-alanine, 1 mM IPTG, 0.2 g/L putrescine, 200 mg/L ampicillin where indicated. The method, then:
as §1

A further assay has as its system AB354 (ΔpanD). The class given is cell-based, E. coli. The conditions noted are these: M9 minimal media plates with threonine, leucine, thiamine; 37 C overnight; 10 g/L beta-alanine, 1 mM IPTG, 0.2 g/L putrescine, 200 mg/L ampicillin where indicated. The method, then:
as §1

The next assay has as its system wild type E. coli K12. Kind of assay: 3-HP toxicity (growth inhibition) in E. coli. The class given is cell-based. The source says: Previous attempts to produce 3-HP via biological pathways provide product titers which have been low and these processes have required the use of expensive, rich media. Both of these factors limit commercial feasibility and profitability. The use of rich media was necessary due to the toxicity of 3-HP when fermented with the more economical minimal media. […] Further, the fermentative pathways reported by other investigators have not addressed and resolved the toxicity mechanisms of 3-HP to the host organisms. Further to issues related to commodity chemical production, which largely relies on petroleum-based starting materials, there is an increasing need to reduce the domestic usage of petroleum and natural gas. The numerous motivating factors for this increasing need include, but are not limited to: pollutant reduction (such as greenhouse gases), environmental protection, and reducing the dependence on foreign oil. These issues not only impact fuel markets, but also the markets of numerous other products that are currently derived from oil. Biorefining promises the development of efficient biological processes allowing for the conversion of renewable sources of carbon and energy into large volume commodity chemicals.
FIG. 2 depicts 3-hydroxpropionate toxicity in E. coli K12. The minimum concentration of 3-HP that is required to inhibit visible growth after 24 hrs in minimal media is shown for wild type E. coli K12 grown in both minimal media and rich media which contains more complex nutrients.
Severe growth inhibition has been observed for extracellular 3-HP levels as low as 10 g/L in minimal media (pH 7.0), which limits the economic feasibility of 3-HP production as a platform chemical. […] However toxicity at levels below required titers (100 g/L) are still observed in rich media.

Regarding `O=C(O)c1ccc(O)cc1` [para-hydroxy-benzoate], the “effect of addition on 3-HP toxicity” value in the assay on E. coli is listed as “alleviate toxicity to a degree”.

As to `Nc1ccc(C(=O)O)cc1` [para-aminobenzoate], the “effect of addition on 3-HP toxicity” value in the assay with E. coli was “alleviate toxicity to a degree”.

Take `NCCC(=O)O` [β-alanine, beta-alanine]: the “growth on plate, strain K12” value in the assay on K12 is given as “+”. Moreover, the “growth on plate, strain AB354 (ΔpanD) + pKK223-kgd” value in assay [1] is listed as “+”. Besides, in the assay on AB354 (ΔpanD) + pKK223, the “growth on plate, strain AB354 (ΔpanD) + pKK223” value is “+”. Further, the “growth on plate, strain AB354 (ΔpanD) + pKK223-mer” value in assay [2] was “+”. In addition, the “growth on plate, strain AB354 (ΔpanD)” value with AB354 (ΔpanD) is “+”.

In the case of `O=C(O)CCO` [3-HP, 3-hydroxypropionate], the “extracellular 3-HP level at which severe growth inhibition is observed” value in the assay on wild type E. coli K12 (minimal media (pH 7.0)) is reported as at least 10 g/L. Besides, in the assay on wild type E. coli K12 (rich media), the “3-HP level at which toxicity is still observed” value was below 100 g/L and the “product titer at which toxic effects are observed, relative to desired titers” value is on record as “approximately two times lower than desired titers”. In the assay on wild type E. coli K12 (wild type E. coli, minimal media), the “3-HP level at which metabolic activity is significantly inhibited, relative to the approximate 100 g/L titer” value is reported as 5-10 times lower.

For `N[C@@H](Cc1ccccc1)C(=O)O` [phenylalanine], in the assay on E. coli, the “effect of addition on 3-HP toxicity” value was “alleviate toxicity to a degree”.

Regarding `O=C(O)c1cccc(O)c1O` [2,3-dihydroxybenzoate], the “effect of addition on 3-HP toxicity” value in the assay on E. coli was “alleviate toxicity to a degree”.

Turning to `N[C@@H](Cc1ccc(O)cc1)C(=O)O` [tyrosine], the “effect of addition on 3-HP toxicity” value in the assay on E. coli is listed as “alleviate toxicity to a degree”.

As to `CC1(C)S[C@@H]2[C@H](NC(=O)[C@H](N)c3ccccc3)C(=O)N2[C@H]1C(=O)O` [Amp, ampicillin], in the assay on K12, the “growth on plate, strain K12” value is on record as “−”. Further, the “growth on plate, strain AB354 (ΔpanD) + pKK223-kgd” value in assay [1] is “−”. Besides, the “growth on plate, strain AB354 (ΔpanD) + pKK223” value in the assay on AB354 (ΔpanD) + pKK223 is recorded as “−”. In addition, in assay [2], the “growth on plate, strain AB354 (ΔpanD) + pKK223-mer” value is given as “−”. The “growth on plate, strain AB354 (ΔpanD)” value with AB354 (ΔpanD) was “−”.
